Measurements published in EPA's ToxValDB 9.5 (doi:10.2903/j.efsa.2010.1645).
Converted amounts (≈) assume the structure as drawn.

How the values were obtained:
[1] = system: Glycine sp.; conditions: chronic/long-term; seedling emergence
[2] = system: Bibionidae; conditions: chronic/long-term; duration: 28 days; development
[3] = system: Apis mellifera; conditions: acute, duration: 48 hours, mortality
[4] = system: Oncorhynchus mykiss; conditions: acute; duration: 96 hours; mortality
[5] = system: Daphnia magna; conditions: chronic/long-term; duration: 21 days; reproduction
[6] = system: Rattus norvegicus
[7] = system: Pimephales promelas; conditions: chronic/long-term; duration: 35 days; growth
[8] = system: Tagia sp.
[9] = system: Folsomia candida; conditions: chronic/long-term; duration: 28 days; reproduction
[10] = system: Typhlodromus pyri; experiment: LR50; higher = less toxic; conditions: acute; duration: 7 days; mortality

`CC(C)[C@@H](Nc1ccc(C(F)(F)F)cc1Cl)C(=O)OC(C#N)c1cccc(Oc2ccccc2)c1` (stereo not given in full) [tau-Fluvalinate] gave an NOEC [1] of less than 6.25 g/ha, an NOEC [2] of 0.00024 mg/L and an LD50 ([3]; dermal) of 12 µg/piece. The LD50 ([3]; oral, unspecified) was 12.6 µg/piece, the LC50 [4] was 7.94 ng/mL (≈ 0.0158 µM) and the NOEC [5] was 2.1e-05 mg/L. For the same compound, the NOAEL ([6]; chronic, duration: 2 years, body weight) was 0.5 mg/kg-day, the NOAEL ([6]; developmental, development) was 5 mg/kg-day and the NOAEL ([6]; short-term, duration: 28 days, clinical signs) was 6 mg/kg-day. The NOAEL ([6]; subchronic, duration: 90 days, oral, diet, body weight) was 1 mg/kg-day, the NOEC [7] was 6.4e-05 mg/L and the LC50 ([8]; acute, duration: 14 days, mortality) was greater than 1000 mg/kg. It also gave an NOEC ([8]; chronic/long-term, duration: 56 days, reproduction) greater than 2.88 mg/kg, an NOEC [9] of 9.6 mg/kg and an LR50 [10] of 0.049 g/ha.
